Measurements taken from publication PMC7017153, “Assembly of a G-Quadruplex Repair Complex by the FANCJ DNA Helicase and the REV1 Polymerase” (Genes, 2019).

Key:
[1] = tested on: (GGGT)4; experiment: Fluorescence spectroscopy, FANCJ AKKQ binding to (GGGT)4; details: tryptophan fluorescence quenching, peptide 5 µM, excitation 280 nm; Buffer H (pH 7.5, 150 mM KCl), 25 °C; 1:1 model; average and 95% confidence interval, n = 3
Method: (§1) Equilibrium binding experiments were performed on a Cary Eclipse Fluorescence Spectrophotometer (Agilent Technologies, Santa Clara, CA, USA). Samples were maintained at 25 °C with a PCB 1500 water peltier system (Agilent). FANCJ peptide (5 µM) was placed in a microcuvette. Fluorescence spectra were collected from 300 nm to 450 nm (λexcitation = 280 nm) with slit widths set to 5 nm. A scan of Buffer H was used as a baseline. DNA substrate was titrated into the cuvette, and each mixture was equilibrated for 3 min prior to data collection. The extent of fluorescence quenching observed (ΔFobs) was calculated using the following equation, where F0 was the total fluorescence signal from the FANCJ peptide alone, and Fi was the total fluorescence intensity upon the ith addition of DNA:(1) ΔFobs=F0−Fi/F0
(§2) Binding isotherms were generated by plotting ΔFobs versus the total DNA concentration after correcting for sample dilution. The resulting curves were fit to a 1:1 interaction model using Scientist 3.0 software (Micromath, St. Louis, MO, USA) based on the following formulas, where A was the amplitude of fluorescence quenching and K was the equilibrium association constant. […] Fluorescence titrations were performed in triplicate. The reported values were determined from the average and 95% confidence interval of the three independent data-sets. […]

[2] = tested on: bioPEG12-(TTAGGG)4; experiment: Biolayer interferometry (BLI), AKKQ binding to bioPEG12-(TTAGGG)4; set-up: species or system human
Method: (§3) BLI assays were performed on a BLItz instrument (Pall Fortébio, Fremont, CA, USA). Streptavidin-coated biosensors were purchased from Pall Fortébio (Lot 1906281). Biosensors were hydrated in Buffer H for 10 min, and the baseline optical interference was recorded. A total of 150 nM of biotinylated G4 DNA or FANCJ PIP peptide was loaded onto the sensors over 2 min, after which they were washed with Buffer H. Binding reactions were initiated by placing the biosensors in analyte solutions at the indicated concentrations. After their interactions had reached an equilibrium, the sensors were returned to buffer to monitor dissociation of the complexes. Experiments were repeated in triplicate. BLI binding isotherms were generated by plotting the plateau values of the association phase versus total analyte concentration. These curves were fit to a 1:1 interaction model, as described above. The parameters reported were obtained from the average and 95% confidence interval of the three data sets.
(§4) We next validated our fluorescence spectroscopy results by biolayer interferometry (BLI). This technique measures the optical thickness of a biosensor surface, which can be used to examine the association and dissociation reactions of macromolecules. […] The optical interference pattern of the sensor alone was measured in Buffer H as an initial baseline (phase 1). […]

[3] = tested on: bioPEG12-(TTAGGG)4-8oxo5; experiment: Biolayer interferometry (BLI), AKKQ binding to bioPEG12-(TTAGGG)4-8oxo5; set-up: species or system human; details: 150 nM biotinylated G4 DNA loaded on streptavidin biosensor, peptide 32-0.5 µM, Buffer H (pH 7.5, 150 mM KCl), 25 °C, plateau Δλ, 1:1 model, average and 95% confidence interval, n = 3
Method: as §3, §4

[4] = tested on: (GGGT)4 8oxo5; experiment: Fluorescence spectroscopy, FANCJ AKKQ binding to (GGGT)4 8oxo5; details: tryptophan fluorescence quenching, peptide 5 µM, excitation 280 nm; Buffer H (pH 7.5, 150 mM KCl), 25 °C; 1:1 model; 8oxoG at fifth guanine; average and 95% confidence interval, n = 3
Method: as §1, §2

[5] = tested on: (GGGT)4 8oxo1; experiment: Fluorescence spectroscopy, FANCJ AKKQ binding to (GGGT)4 8oxo1
Method: as §1, §2

[6] = tested on: (TTAGGG)4 human telomeric G4 DNA; experiment: Fluorescence spectroscopy, FANCJ AKKQ binding to (TTAGGG)4; details: tryptophan fluorescence quenching, peptide 5 µM, excitation 280 nm, 300-450 nm; Buffer H (20 mM HEPES pH 7.5, 150 mM KCl, 5 mM TCEP, 5% (v/v) glycerol), 25 °C; 1:1 model; average and 95% confidence interval, n = 3
Method: as §1, §2

[7] = tested on: (TTAGGG)4 8oxo1; experiment: Fluorescence spectroscopy, FANCJ AKKQ binding to (TTAGGG)4 8oxo1; set-up: species or system human; details: tryptophan fluorescence quenching, peptide 5 µM, excitation 280 nm; Buffer H (pH 7.5, 150 mM KCl), 25 °C; 1:1 model; 8oxoG at first guanine; average and 95% confidence interval, n = 3
Method: as §1, §2

[8] = tested on: bioPEG12-(TTAGGG)4-8oxo1; experiment: Biolayer interferometry (BLI), AKKQ binding to bioPEG12-(TTAGGG)4-8oxo1; set-up: species or system human; details: 150 nM biotinylated G4 DNA loaded on streptavidin biosensor, peptide 32-0.5 µM, Buffer H (pH 7.5, 150 mM KCl), 25 °C, plateau Δλ, 1:1 model, average and 95% confidence interval, n = 3
Method: as §3, §4

[9] = tested on: (TTAGGG)4 8oxo5; experiment: Fluorescence spectroscopy, FANCJ AKKQ binding to (TTAGGG)4 8oxo5; set-up: species or system human; details: tryptophan fluorescence quenching, peptide 5 µM, excitation 280 nm; Buffer H (pH 7.5, 150 mM KCl), 25 °C; 1:1 model; 8oxoG at fifth guanine; average and 95% confidence interval, n = 3
Method: as §1, §2

K (equilibrium association constant) [1]: 2.7 ± 0.4 × 10^5 M^−1 | K (equilibrium constant) ([2]; BLI, 150 nM biotinylated G4 DNA loaded on streptavidin biosensor, peptide 64-0.5 µM, Buffer H (pH 7.5, 150 mM KCl), 25 °C, plateau Δλ, 1:1 model, average and 95% confidence interval, n = 3): 9.4 ± 1.1 × 10^4 M^−1 | K8oxo5 (equilibrium constant) [3]: 1.8 ± 0.2 × 10^5 M^−1 | K8oxo5 (equilibrium association constant) [4]: 4.4 ± 0.6 × 10^5 M^−1 | K8oxo1 (equilibrium association constant) ([5]; tryptophan fluorescence quenching, peptide 5 µM, excitation 280 nm, Buffer H (pH 7.5, 150 mM KCl), 25 °C, 1:1 model, 8oxoG at first guanine, average and 95% confidence interval, n = 3): 7.7 ± 0.7 × 10^5 M^−1 | K (equilibrium association constant) [6]: 1.6 ± 0.7 × 10^6 M^−1 | K8oxo1 (equilibrium association constant) [7]: 1.3 ± 0.4 × 10^6 M^−1 | K8oxo1 (equilibrium constant) [8]: 2.3 ± 0.8 × 10^5 M^−1 | K8oxo5 (equilibrium association constant) [9]: 1.4 ± 0.5 × 10^6 M^−1
Sequence: SPEKTTLAAKLSAKKQASIW [FANCJ AKKQ]
BLI binding constants compared to the fluorescence measurements ([2]; human telomeric G4, native, 8oxo1 and 8oxo5): about one order of magnitude weaker compared to the fluorescence measurements | Increase of equilibrium constant by oxidative damage ([5]; (GGGT)4 8oxo1 and 8oxo5 relative to (GGGT)4, fluorescence): 1.5-3 fold
